Laboratory results from article PMC8813803 (Clinical Pharmacokinetics, 2021).

Assays:
[1] = Clinical ADME study NCT03315559; type: in vivo; details: human; set from Fg 0.83 of clinical study 206764
[2] = system: liver uptake transporters; assay: Liver uptake transporter substrate status; type: in vitro ADME
[3] = human, cited from earlier work
[4] = in words; cited from earlier work
[5] = in words; cited from earlier work; remark: listed apart in the source
[6] = in words; cited from earlier work; remark: listed apart in the source

Intestinal FPE (first-pass extraction) [1]: 17%
Substrate of liver uptake transporters [2]: not a substrate
Compound: CC(C)N1CCN(Cc2cnc(-c3cc(-c4cccc5[nH]ccc45)cc4[nH]ncc34)o2)CC1 [nemiralisib, Nemiralisib]
Fg (fraction escaping gut wall metabolism) ([3]; clinical study 206764 (NCT03315559)): 0.83
Volume of distribution at steady state ([3]; intravenous dosing): approximately 10 L/kg
tmax (time of maximum plasma concentration) ([3]; oral dose): 6 h
Oral bioavailability [3]: 35%
Rat lung tissue binding [4]: high
Permeability [5]: high
Solubility [6]: reasonable
